The values that follow are results of earlier work, collected in patent US9040672B2, “Devices and methods for reducing matrix effects” (Agilent Technologies, Inc., priority 2007, dated 2015).

For this series the following is noted: octanol-water partition coefficient.

SMILES strings stand for the structures.

The term Log P denotes a log measure of how a compound divides between an organic and an aqueous phase. On to `NC(=O)N1c2ccccc2C=Cc2ccccc21` [carbamazepine], for which the “Log P” value is given as 2.69. Take `CC[C@@H]([C@H](C)O)n1ncn(-c2ccc(N3CCN(c4ccc(OC[C@@H]5CO[C@@](Cn6cncn6)(c6ccc(F)cc6F)C5)cc4)CC3)cc2)c1=O` [posaconazole]: the “Log P” value was 5.66.
